This is an account of results in ChEMBL document CHEMBL4130376, “Discovery of methylsulfonyl indazoles as potent and orally active respiratory syncytial Virus(RSV) fusion inhibitors” (Eur J Med Chem, 2017).

Data set [1] can be described thus: AUC (0 to 24 hrs) in rat at 5 mg/kg, po. In kind it is ADME, organism-based. The arrangement: dose 5 mg/kg, time < 24 hr, route oral. As to conditions: in vivo.
Data set [2] is described as follows: Volume of distribution at steady state in rat at 1 mg/kg, iv. Format: ADME, organism-based. The conditions noted are these: in vivo, read-out: Vdss.
Data set [3] can be described thus: Metabolic stability in rat liver microsomes by high-throughput screening based assay. In kind it is ADME, microsome. As to conditions: read-out: Stability.
Data set [4] is described as follows: Half life in rat at 1 mg/kg, iv. The conditions noted are these: in vivo. Format: ADME, organism-based.
Data set [5] is described as follows: Effective permeability of the compound by PAMPA. In kind it is ADME. The conditions noted are these: read-out: Peff.
A short description of data set [6]: Metabolic stability in human liver microsomes by high-throughput screening based assay. The conditions noted are these: read-out: Stability. In kind it is ADME, microsome. A general note: Microsomes from liver hold many membrane-bound enzymes, among them those of drug oxidation.
The nature of data set [7]: Metabolic stability in mouse liver microsomes by high-throughput screening based assay. The conditions noted are these: read-out: Stability. In kind it is ADME, microsome.
Data set [8] can be described thus: Cmax in rat at 5 mg/kg, po. Details: dose 5 mg/kg, route oral. Format: ADME, organism-based. As to conditions: in vivo.
For a further data set, the system named is Rattus norvegicus. The experiment in a line: AUC (0 to 24 hrs) in rat at 1 mg/kg, iv. In kind it is ADME, organism-based. Details: dose 1 mg/kg, time < 24 hr, route intravenous. The conditions noted are these: in vivo.
Data set [9] can be described thus: Oral bioavailability in rat at 5 mg/kg. Format: ADME, organism-based. The conditions noted are these: in vivo.
Data set [10] can be described thus: Cmax in rat at 1 mg/kg, iv. As to conditions: in vivo. The arrangement: dose 1 mg/kg, route intravenous. In kind it is ADME, organism-based.
The nature of data set [11]: Tmax in rat at 5 mg/kg, po. In kind it is ADME, organism-based. The conditions noted are these: in vivo.
The nature of data set [12]: Cmax in ICR mouse at […], po. Format: ADME, organism-based. Details: dose 7.9 mg/kg, route oral. The conditions noted are these: in vivo.
The nature of data set [13]: Half life in ICR mouse at […], po. In kind it is ADME, organism-based. The conditions noted are these: in vivo.
The nature of data set [14]: Plasma clearance in ICR mouse at 2 mg/kg, iv. Format: ADME, organism-based.
The nature of data set [15]: Volume of distribution at steady state in ICR mouse at 2 mg/kg, iv. Format: ADME, organism-based. As to conditions: in vivo, read-out: Vdss.
Data set [16] is described as follows: Tmax in ICR mouse at […], po. As to conditions: in vivo. In kind it is ADME, organism-based.
Data set [17] is described as follows: Half life in ICR mouse at 2 mg/kg, iv. Format: ADME, organism-based. As to conditions: in vivo.
The nature of data set [18]: Cmax in ICR mouse at 2 mg/kg, iv. In kind it is ADME, organism-based. Details: dose 2 mg/kg, route intravenous. The conditions noted are these: in vivo.
Data set [19] is described as follows: (§1) AUC (0 to 24 hrs) in ICR mouse at 2 mg/kg, iv. In kind it is ADME, organism-based. Details: time < 24 hr, dose 2 mg/kg, route intravenous. As to conditions: ICR, in vivo.
Data set [20] in a line: AUC (0 to 24 hrs) in ICR mouse at […], po. Format: ADME, organism-based. The conditions noted are these: in vivo. Details: time < 24 hr, dose 7.9 mg/kg, route oral.
Data set [21] in a line: Oral bioavailability in ICR mouse at […]. In kind it is ADME, organism-based. As to conditions: in vivo.
Data set [22] can be described thus: Cmax in ICR mouse at 25 mg/kg, po. As to conditions: in vivo. Format: ADME, organism-based. Details: dose 25 mg/kg, route oral.
In data set [23] the test system is Mus musculus. Briefly: Oral bioavailability in ICR mouse at 25 mg/kg. In kind it is ADME, organism-based. The conditions noted are these: in vivo.
Data set [24] deals with Mus musculus. Briefly: AUC (0 to 24 hrs) in ICR mouse at 25 mg/kg, po. In kind it is ADME, organism-based. The arrangement: dose 25 mg/kg, time < 24 hr, route oral. The conditions noted are these: in vivo.
Data set [25] in a line: Half life in ICR mouse at 25 mg/kg, po. In kind it is ADME, organism-based. The conditions noted are these: in vivo.
Data set [26] can be described thus: Tmax in ICR mouse at 25 mg/kg, po. The conditions noted are these: in vivo. In kind it is ADME, organism-based.
Data set [27] relates to Mus musculus. The data set is described as §1. In kind it is ADME, organism-based. Details: time < 24 hr, dose 2 mg/kg, route intravenous. The conditions noted are these: in vivo, 24 h.
Data set [28] relates to Mus musculus. The experiment in a line: Oral bioavailability in ICR mouse at 12.2 mg/kg. In kind it is ADME, organism-based. The conditions noted are these: in vivo.
Data set [29] relates to Mus musculus. The experiment in a line: AUC (0 to 24 hrs) in ICR mouse at 12.2 mg/kg, po. In kind it is ADME, organism-based. Details: dose 12.2 mg/kg, time < 24 hr, route oral. The conditions noted are these: in vivo.
Data set [30] is described as follows: Tmax in ICR mouse at 12.2 mg/kg, po. In kind it is ADME, organism-based. The conditions noted are these: in vivo.
Data set [31] is described as follows: Cmax in ICR mouse at 12.2 mg/kg, po. Format: ADME, organism-based. Details: dose 12.2 mg/kg, route oral. The conditions noted are these: in vivo.
Data set [32] in a line: Cmax in ICR mouse at 1 mg/kg, iv. Format: ADME, organism-based. Details: dose 1 mg/kg, route intravenous. As to conditions: in vivo.
A short description of data set [33]: Volume of distribution at steady state in ICR mouse at 1 mg/kg, iv. The conditions noted are these: in vivo, read-out: Vdss. Format: ADME, organism-based.
The test system of data set [34] is Mus musculus. Briefly: AUC (0 to 24 hrs) in ICR mouse at 1 mg/kg, iv. Details: time < 24 hr, dose 1 mg/kg, route intravenous. In kind it is ADME, organism-based. As to conditions: in vivo.
Data set [35] in a line: AUC (0 to 24 hrs) in ICR mouse at 10 mg/kg, po. In kind it is ADME, organism-based. Details: time < 24 hr, dose 10 mg/kg, route oral. As to conditions: in vivo.
Data set [36] is described as follows: Half life in ICR mouse at 10 mg/kg, po. In kind it is ADME, organism-based. As to conditions: in vivo.
Data set [37] can be described thus: Cmax in ICR mouse at 10 mg/kg, po. As to conditions: in vivo. In kind it is ADME, organism-based. Details: dose 10 mg/kg, route oral.
The nature of data set [38]: Oral bioavailability in ICR mouse at 10 mg/kg. In kind it is ADME, organism-based. As to conditions: in vivo.
Data set [39] is described as follows: Tmax in ICR mouse at 10 mg/kg, po. In kind it is ADME, organism-based. As to conditions: in vivo.

What is called AUC(0-t) is the area under the concentration-time curve up to a stated or last time point. Low values mean less exposure, high ones more exposure. The term half-life denotes the time needed for the level to fall by half in the phase considered. Low values mean rapid decline, high ones slow decline. Broadly, the Cmax is the highest concentration seen after dosing. For orientation: AUC means concentration integrated over time. Read a high AUC as high exposure. The term bioavailability denotes the share of a dose that reaches the circulation, judged against a reference dose that is usually intravenous. Higher therefore signals much systemic uptake. The Tmax is the time from dosing to the highest level. In general, clearance refers to the volume of plasma or blood freed of the substance per unit of time.

As for `CS(=O)(=O)CCCn1c(Cn2cc(S(C)(=O)=O)c3ccccc32)nc2cc(Cl)ccc21`, the AUC(0-t) at 24 h in data set [1] came to 21.4 ng·h/mL. Also, the Vd in data set [2] came out at 2.71 L/kg. Further, the CLhep predicted in data set [3] is 1.33 mL/min/kg; in data set [6], 0.66 mL/min/kg; in [7], 34 mL/min/kg. Also, the half-life in [4] is 40.4 min. Also, the Papp in [5] lay in the range of 1.55 to 2.36 ×10⁻⁶ cm/s. The values for the peak concentration (Cmax) in data set [8] and in [10] were 4.05 ng/mL and 371 ng/mL, respectively. Moreover, the AUC with Rattus norvegicus was found to be 294 ng·h/mL. The bioavailability in data set [9] worked out at 1.46%. Moreover, in data set [11], the time to peak (Tmax) worked out at 280 min.

For `CC(C)(O)CCn1c(Cn2nc(S(C)(=O)=O)c3ccncc32)nc2cc(Cl)ccc21`, the highest concentration (Cmax) was determined as 324 ng/mL in [12] and 894 ng/mL in data set [18]. For the same compound, the figures for the half-life in [13] and in [17] were 119 min and 28.2 min, respectively. Also, in data set [14], the clearance turned out to be 61.1 mL/min/kg. Besides, the results for the CLhep predicted in data set [3], in [6] and in data set [7] were 8.45 mL/min/kg, 2.95 mL/min/kg and 26.6 mL/min/kg, respectively. Further, the Papp in data set [5] was 2.39 ×10⁻⁶ cm/s. Also, in data set [15], the Vd was 1.93 L/kg. In addition, the time to peak (Tmax) in data set [16] came to 15 min. Further, the area under the curve AUC(0-t) at 24 h in data set [19] amounted to 701 ng·h/mL; in [20], 546 ng·h/mL. Besides, in [21], the bioavailability was 32.5%.

For `CS(=O)(=O)c1nn(Cc2nc3cc(Cl)ccc3n2CCCCO)c2cnccc12`, the values for the Cmax in [22] and in data set [18] were 425 ng/mL and 1420 ng/mL, respectively. This compound also yielded a F in the data set with Mus musculus [23] of 19%. For the same compound, the AUC in the data set with Mus musculus [24] came to 580 ng·h/mL; with Mus musculus [27], 1380 ng·h/mL. In addition, the CLhep predicted in data set [3] was 20.7 mL/min/kg; in data set [6] it was 2.58 mL/min/kg; in data set [7], 25.5 mL/min/kg. In addition, the Papp in [5] was 2.42 ×10⁻⁶ cm/s. Further, the Vd in [15] was determined as 1.08 L/kg. Moreover, the half-life is 109 min in data set [25] and 17.8 min in [17]. The time of peak concentration (Tmax) in data set [26] came out at 15 min.

On to `CS(=O)(=O)c1nn(Cc2nc3cc(Cl)ccc3n2CCOCCO)c2cnccc12`, for which the CLhep predicted in data set [3] is 13.7 mL/min/kg; in data set [6], 1.91 mL/min/kg; in data set [7], 14.2 mL/min/kg. Further, the Papp in [5] is 3.12 ×10⁻⁶ cm/s.

As for `CS(=O)(=O)CCCn1c(Cn2nc(S(C)(=O)=O)c3ccncc32)nc2cc(Cl)ccc21`, the CLhep predicted is 39.9 mL/min/kg in data set [3], 11.3 mL/min/kg in data set [6] and 75.5 mL/min/kg in [7]. Also, the Papp in data set [5] was determined as 1.55 ×10⁻⁶ cm/s.

As to `CS(=O)(=O)CCn1c(Cn2cc(S(C)(=O)=O)c3ccccc32)nc2cc(Cl)ccc21`, the Papp in [5] was 2.3 ×10⁻⁶ cm/s.

In turn, `CS(=O)(=O)c1nn(Cc2nc3cc(Cl)ccc3n2CC2COC2)c2cnccc12` returned a F in the data set on Mus musculus [28] of 23.8%. Also, the AUC with Mus musculus [29] was found to be 989 ng·h/mL; in the data set with Mus musculus [34], 2870 ng·h/mL. Also, the Tmax in data set [30] turned out to be 30 min. The figures for the Cmax in data set [31] and in data set [32] were 972 ng/mL and 1270 ng/mL, respectively. Also, the CLhep predicted was 19.8 mL/min/kg in data set [3], 3.9 mL/min/kg in [6] and 9 mL/min/kg in data set [7]. The Papp in data set [5] was found to be 3.22 ×10⁻⁶ cm/s. In data set [33], the Vd came to 0.88 L/kg.

The compound `CC(C)(O)CCCn1c(Cn2nc(S(C)(=O)=O)c3ccncc32)nc2cc(Cl)ccc21` registered a clearance in data set [14] of 60.4 mL/min/kg. Besides, the figures for the AUC(0-t) at 24 h in data set [35] and in data set [19] were 809 ng·h/mL and 552 ng·h/mL, respectively. Further, the CLhep predicted was 2.96 mL/min/kg in data set [3], 5.17 mL/min/kg in data set [6] and 20.7 mL/min/kg in data set [7]. The Papp in [5] is 2.57 ×10⁻⁶ cm/s. Also, the Vd in [15] was 1.09 L/kg. The half-life in data set [36] was 307 min; in data set [17], 14.5 min. For the same compound, the results for the Cmax in data set [37] and in data set [18] were 340 ng/mL and 1300 ng/mL, respectively. The bioavailability in [38] was determined as 29.3%. Besides, in data set [39], the Tmax came out at 15 min.

For the compound `CS(=O)(=O)CCc1c(CN2C(=O)C3(CC3)c3ccncc32)nc2cc(Cl)ccn12`, the CLhep predicted in data set [6] was 2.6 mL/min/kg; in data set [7] it was 63.5 mL/min/kg.
